According to ChEMBL document CHEMBL1649369, “Novel 4-aryl-pyrido[1,2-c]pyrimidines with dual SSRI and 5-HT(1A) activity. part 3” (Eur J Med Chem, 2011):
Calls of active or inactive are those of the source. The rule behind the calls is not given here.

Tests used:
[1] = biological target: Sodium-dependent serotonin transporter (Rattus norvegicus, UniProt P31652); assay: Displacement of [3H]citalopram from SERT in rat cerebral cortex by liquid scintillation counting; assay type: tissue-based
[2] = biological target: T1, 5-hydroxytryptamine receptor 1A (Rattus norvegicus, UniProt P19327); assay: Displacement of [3H]8-OH-DPAT from 5-HT1A receptor in rat hippocampus; assay type: tissue-based
T1 sequence (P19327 whole entry): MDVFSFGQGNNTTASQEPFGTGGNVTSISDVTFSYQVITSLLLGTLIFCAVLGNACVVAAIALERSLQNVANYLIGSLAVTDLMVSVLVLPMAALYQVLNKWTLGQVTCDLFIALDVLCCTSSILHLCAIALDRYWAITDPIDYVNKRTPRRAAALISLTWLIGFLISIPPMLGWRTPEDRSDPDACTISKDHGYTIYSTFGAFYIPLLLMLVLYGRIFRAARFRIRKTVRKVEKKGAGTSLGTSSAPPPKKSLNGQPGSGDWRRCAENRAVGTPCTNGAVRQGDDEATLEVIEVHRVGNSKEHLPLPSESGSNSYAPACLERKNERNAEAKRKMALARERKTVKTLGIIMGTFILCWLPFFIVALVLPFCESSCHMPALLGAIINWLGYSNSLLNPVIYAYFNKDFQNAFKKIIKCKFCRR

Mus musculus [3] = assay: Reduction of 8-OH-DPAT-induced hypothermia in Swiss albino mouse at 20 mg/kg, ip administered 45 mins prior 8-OH-DPAT challenge measured after 30 mins by inducible hypothermia test; assay type: functional, organism-based; set-up: dose 20 mg/kg
Mus musculus [4] = assay: Reduction of 8-OH-DPAT-induced hypothermia in Swiss albino mouse at 20 mg/kg, ip administered 45 mins prior 8-OH-DPAT challenge measured after 60 mins by inducible hypothermia test; assay type: functional, organism-based; set-up: dose 20 mg/kg
Mus musculus [5] = assay: Reduction of 8-OH-DPAT-induced hypothermia in Swiss albino mouse at 20 mg/kg, ip administered 45 mins prior 8-OH-DPAT challenge measured after 15 mins by inducible hypothermia test; assay type: functional, organism-based; set-up: dose 20 mg/kg
Mus musculus [6] = assay: Reduction of 8-OH-DPAT-induced hypothermia in Swiss albino mouse at 20 mg/kg, ip administered 45 mins prior 8-OH-DPAT challenge measured after 45 mins by inducible hypothermia test; assay type: functional, organism-based; set-up: dose 20 mg/kg
Mus musculus [7] = assay: Effect on hypothermia in Swiss albino mouse assessed as change in rectal body temperature at 20 mg/kg, ip after 90 mins by inducible hypothermia test; assay type: functional, organism-based; set-up: dose 20 mg/kg
Mus musculus [8] = assay: Effect on hypothermia in Swiss albino mouse assessed as change in rectal body temperature at 5 mg/kg, ip after 120 mins by inducible hypothermia test; assay type: functional, organism-based; set-up: dose 5 mg/kg
Mus musculus [9] = assay: Effect on hypothermia in Swiss albino mouse assessed as change in rectal body temperature at 10 mg/kg, ip after 60 mins by inducible hypothermia test; assay type: functional, organism-based; set-up: dose 10 mg/kg
Mus musculus [10] = assay: Effect on hypothermia in Swiss albino mouse assessed as change in rectal body temperature at 20 mg/kg, ip after 60 mins by inducible hypothermia test; assay type: functional, organism-based; set-up: dose 20 mg/kg
Mus musculus [11] = assay: Antidepressant activity in Swiss albino mouse assessed as total immobility time at 10 mg/kg, ip administered 30 mins before test measured 6 mins test session after 2 mins habituation period by forced swimming test; assay type: functional, organism-based; set-up: dose 10 mg/kg
Mus musculus [12] = assay: Effect on hypothermia in Swiss albino mouse assessed as change in rectal body temperature at 20 mg/kg, ip dosed 15 mins after 0.1 mg/kg, sc WAY 100635 challenge measured after 30 mins by inducible hypothermia test; assay type: functional, organism-based
Mus musculus [13] = assay: Effect on hypothermia in Swiss albino mouse assessed as change in rectal body temperature at 20 mg/kg, ip dosed 15 mins after 0.1 mg/kg, sc WAY 100635 challenge measured after 60 mins by inducible hypothermia test; assay type: functional, organism-based
Mus musculus [14] = assay: Effect on hypothermia in Swiss albino mouse assessed as change in rectal body temperature at 10 mg/kg, ip after 30 mins by inducible hypothermia test; assay type: functional, organism-based; set-up: dose 10 mg/kg
Mus musculus [15] = assay: Effect on hypothermia in Swiss albino mouse assessed as change in rectal body temperature at 20 mg/kg, ip after 120 mins by inducible hypothermia test; assay type: functional, organism-based; set-up: dose 20 mg/kg
Mus musculus [16] = assay: Effect on hypothermia in Swiss albino mouse assessed as change in rectal body temperature at 10 mg/kg, ip after 120 mins by inducible hypothermia test; assay type: functional, organism-based; set-up: dose 10 mg/kg
Mus musculus [17] = assay: Effect on hypothermia in Swiss albino mouse assessed as change in rectal body temperature at 10 mg/kg, ip after 90 mins by inducible hypothermia test; assay type: functional, organism-based; set-up: dose 10 mg/kg
Mus musculus [18] = assay: Effect on hypothermia in Swiss albino mouse assessed as change in rectal body temperature at 5 mg/kg, ip after 60 mins by inducible hypothermia test; assay type: functional, organism-based; set-up: dose 5 mg/kg
Mus musculus [19] = assay: Effect on hypothermia in Swiss albino mouse assessed as change in rectal body temperature at 5 mg/kg, ip after 90 mins by inducible hypothermia test; assay type: functional, organism-based; set-up: dose 5 mg/kg
Mus musculus [20] = assay: Effect on hypothermia in Swiss albino mouse assessed as change in rectal body temperature at 20 mg/kg, ip after 30 mins by inducible hypothermia test; assay type: functional, organism-based; set-up: dose 20 mg/kg
Mus musculus [21] = assay: Effect on hypothermia in Swiss albino mouse assessed as change in rectal body temperature at 5 mg/kg, ip after 30 mins by inducible hypothermia test; assay type: functional, organism-based; set-up: dose 5 mg/kg
Mus musculus [22] = assay: Antidepressant activity in Swiss albino mouse assessed as total immobility time at 20 mg/kg, ip administered 30 mins before test measured 6 mins test session after 2 mins habituation period by forced swimming test; assay type: functional, organism-based; set-up: dose 20 mg/kg
Mus musculus [23] = organism: Mus musculus; settings: Swiss albino, 10 mg/kg
Description: Effect on hypothermia in Swiss albino mouse assessed as change in rectal body temperature at 10 mg/kg, ip dosed 15 mins after 0.1 mg/kg, sc WAY 100635 challenge measured after 30 mins by inducible hypothermia test

Mus musculus [24] = organism: Mus musculus; settings: Swiss albino, 10 mg/kg; remark: listed apart in the source
Description: Effect on hypothermia in Swiss albino mouse assessed as change in rectal body temperature at 10 mg/kg, ip dosed 15 mins after 0.1 mg/kg, sc WAY 100635 challenge measured after 60 mins by inducible hypothermia test

Chain of Sodium-dependent serotonin transporter (P31652 whole entry): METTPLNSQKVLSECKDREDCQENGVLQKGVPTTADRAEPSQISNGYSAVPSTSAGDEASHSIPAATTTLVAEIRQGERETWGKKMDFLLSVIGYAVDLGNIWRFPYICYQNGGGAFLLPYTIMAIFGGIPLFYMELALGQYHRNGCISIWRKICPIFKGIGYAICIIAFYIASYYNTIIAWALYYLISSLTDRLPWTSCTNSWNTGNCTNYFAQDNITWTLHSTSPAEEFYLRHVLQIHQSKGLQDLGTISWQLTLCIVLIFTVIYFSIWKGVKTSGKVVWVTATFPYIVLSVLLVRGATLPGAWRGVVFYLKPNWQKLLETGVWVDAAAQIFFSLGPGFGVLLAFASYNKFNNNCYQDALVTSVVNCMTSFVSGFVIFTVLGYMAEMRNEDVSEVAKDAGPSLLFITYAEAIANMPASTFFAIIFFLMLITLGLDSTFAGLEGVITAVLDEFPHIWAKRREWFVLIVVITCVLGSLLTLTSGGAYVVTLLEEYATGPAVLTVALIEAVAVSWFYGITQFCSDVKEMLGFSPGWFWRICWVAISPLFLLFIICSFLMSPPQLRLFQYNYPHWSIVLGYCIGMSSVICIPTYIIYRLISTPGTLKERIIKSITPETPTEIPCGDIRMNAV

SMILES	Ki [1]	Ki [2]	deltaT (Mus musculus [8])	deltaT (Mus musculus [9])	deltaT (Mus musculus [14])	deltaT (Mus musculus [16])	deltaT (Mus musculus [17])	deltaT (Mus musculus [18])	deltaT (Mus musculus [19])	deltaT (Mus musculus [21])	other results
Cc1ccc(-c2c3n(c(=O)n(CCCCN4CCC(c5c(C)[nH]c6ccccc56)CC4)c2=O)CCCC3)cc1	1800 nM	279 nM									
O=c1c(-c2ccc(F)cc2)c2n(c(=O)n1CCCCN1CCC(c3c[nH]c4ccccc34)CC1)CCCC2	47 nM	62.3 nM									deltaT (Mus musculus [3]): -1.6 °C; deltaT (Mus musculus [4]): -0.6 °C; deltaT (Mus musculus [5]): -0.7 °C; deltaT (Mus musculus [6]): -1.1 °C
Cc1[nH]c2ccccc2c1C1CCN(CCCCn2c(=O)c(-c3ccccc3Cl)c3n(c2=O)CCCC3)CC1	1300 nM	393 nM									
COc1ccc(-c2c3n(c(=O)n(CCCCN4CCC(c5c[nH]c6ccccc56)CC4)c2=O)CCCC3)cc1	50.4 nM	32.4 nM	-0.2 °C	-0.5 °C	-0.8 °C	-0.2 °C	-0.3 °C	-0.2 °C	-0.2 °C	-0.6 °C	deltaT (Mus musculus [7]): -0.5 °C; deltaT (Mus musculus [10]): -0.9 °C; Activity (Mus musculus [11]): inactive; deltaT (Mus musculus [12]): -0.3 °C; deltaT (Mus musculus [13]): -0.2 °C; deltaT (Mus musculus [15]): -0.3 °C; deltaT (Mus musculus [20]): -1.6 °C; Activity (Mus musculus [22]): inactive
O=c1c(-c2ccccc2)c2n(c(=O)n1CCCCN1CCC(c3c[nH]c4ccccc34)CC1)CCCC2	81.7 nM	28.3 nM	-0.1 °C	-0.3 °C	-1.1 °C	-0.1 °C	-0.2 °C	-0.3 °C	-0.2 °C	-0.7 °C	deltaT (Mus musculus [23]): -0.5 °C; deltaT (Mus musculus [24]): -0.2 °C
COc1ccccc1-c1c2n(c(=O)n(CCCCN3CCC(c4c[nH]c5ccccc45)CC3)c1=O)CCCC2	134 nM	19.9 nM	-0.2 °C	-0.5 °C	-0.9 °C	-0.2 °C	-0.3 °C	-0.5 °C	-0.3 °C	-0.8 °C	deltaT (Mus musculus [7]): -0.2 °C; deltaT (Mus musculus [10]): -0.5 °C; deltaT (Mus musculus [12]): -0.3 °C; deltaT (Mus musculus [13]): -0.1 °C; deltaT (Mus musculus [15]): 0 °C; deltaT (Mus musculus [20]): -0.7 °C
Cc1ccccc1-c1c2n(c(=O)n(CCCCN3CCC(c4c[nH]c5ccccc45)CC3)c1=O)CCCC2	69.1 nM	112 nM									
Cc1[nH]c2ccccc2c1C1CCN(CCCCn2c(=O)c(-c3ccccc3F)c3n(c2=O)CCCC3)CC1	1300 nM	303 nM									
COc1ccccc1-c1c2n(c(=O)n(CCCCN3CCC(c4c(C)[nH]c5ccccc45)CC3)c1=O)CCCC2	1300 nM	319 nM									
